Experiments:
Format in all cases: in vivo, mouse
[1] = system: CCL-3; assay: Transcript level of inflammatory cytokine CCL-3 in retina by rt-PCR; conditions: Fas-Lpr/P23H mice, HCQ 1.2 mg/ml in drinking water from P21, versus untreated mice
Experimental: (§1) This study was conducted in the Lpr/P23H mouse line, a Fas-deficient mouse line that is also a model of retinitis pigmentosa. Hydroxychloroquine (HCQ) was given in the drinking water at 1.2 mg/ml starting at 21 days post-natal (P21) to reduce autophagy flux (FIG. 1). Photoreceptor death was assessed by Terminal deoxynucleotidyl transferase (TdT) dUTP Nick-End Labeling (TUNEL) cell counts. Retinal structure was examined by histology and optical coherence tomography (OCT) analysis. Electroretinogram (ERG) recording and immunohistochemistry (IHC) staining of rhodopsin and m-opsin were performed to evaluate the retinal function. Transcript levels of inflammatory cytokines, CCL-2 and CCL-3, were analyzed by rt-PCR.

[2] = system: Fas-Lpr/P23H mice; assay: ONL thickness by optical coherence tomography (OCT), Fas-deficient retinitis pigmentosa model; conditions: 3- and 4-months old, OCT at 250 and 500 μm from the optic nerve, inferior and superior retina, HCQ in drinking water versus untreated
Experimental: as §1
A proxy for retinal cell death is […] (ONL) thickness, with thicker ONLs correlating to less cell death.

[3] = system: Fas-Lpr/P23H mice; assay: Retinal histology and IHC staining (DAPI, m-opsin, rhodopsin); conditions: HCQ versus untreated
Experimental: as §1

[4] = system: Fas-Lpr/P23H mice; assay: TUNEL cell counts for photoreceptor death in retina; conditions: HCQ 1.2 mg/ml in drinking water from P21, versus untreated mice, FIG. 2B
Experimental: as §1

[5] = system: CCL-2; assay: Transcript level of inflammatory cytokine CCL-2 in retina by rt-PCR; conditions: Fas-Lpr/P23H mice, HCQ 1.2 mg/ml in drinking water from P21, versus untreated mice
Experimental: as §1

[6] = system: Fas-Lpr/P23H mice; assay: Electroretinogram (ERG) recording, Fas-deficient retinitis pigmentosa model; conditions: 3-month and 4-month old Fas-LPR/P23H mice; HCQ versus untreated
Experimental: as §1
Photoreceptor function was assessed using electroretinograms (ERGs).

CCN(CCO)CCCC(C)Nc1ccnc2cc(Cl)ccc12 (centres unmarked) [HCQ, Hydroxychloroquine]
production of inflammatory cytokine CCL-3 [1]: lowered production | optic nerve layer (ONL) thickness [2]: significantly greater ONL thickness | photoreceptor survival (histological images) ([3]; 3-month and 4-month old Fas-LPR/P23H mice, FIG. 6): greater photoreceptor survival | survival of cell bodies (DAPI), cones (m-opsin) and rods (rhodopsin), IHC images ([3]; 3-month and 4-month old Fas-Lpr/P23H mice, FIG. 7A, 7B): greater survival of cell bodies, cones, and rods | TUNEL-positive cell counts in the retina [4]: statistically significantly fewer | production of inflammatory cytokine CCL-2 [5]: lowered production | scotopic ERG a-wave amplitude [6]: significantly greater amplitude | scotopic ERG b-wave amplitude [6]: significantly greater amplitude
